Test [1] deals with Mcl-1 protein (UniProtKB primary accession number: Q07820) (Homo sapiens, UniProt Q07820). Put plainly: Inhibition of Mcl-1 by fluorescence polarisation, Method 1. The test is classed as binding. Conditions: fluorescence polarisation; Method 1, or Method 2; read-out: IC50 (M) Mcl-1 FP. The essentials: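 Buffer of 10 mM HEPES pH 7.4 with 150 mM NaCl and 0.05% Tween 20 held 5 nM Mcl-1 and 1 nM fluorescein-tagged ligand (final). Compounds were tested as 11-point serial dilutions at 5% final DMSO, and binding was read by FP.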

Test [2] deals with H929 multiple myeloma tumour line. Put plainly: In vitro cytotoxicity, Microculture Tetrazolium Assay. Conditions: Homo sapiens, NCI-H929, 48 h, H929 cells, 48 hours exposure, MTT; read-out: IC50 (μM) MTT H929. The test is classed as cell-based. How it is done:
The cytotoxicity studies were carried out on the H929 multiple myeloma tumour line.
The cells are distributed onto microplates and exposed to the test compounds for 48 hours.

Sequence of Mcl-1 protein (Q07820 whole entry): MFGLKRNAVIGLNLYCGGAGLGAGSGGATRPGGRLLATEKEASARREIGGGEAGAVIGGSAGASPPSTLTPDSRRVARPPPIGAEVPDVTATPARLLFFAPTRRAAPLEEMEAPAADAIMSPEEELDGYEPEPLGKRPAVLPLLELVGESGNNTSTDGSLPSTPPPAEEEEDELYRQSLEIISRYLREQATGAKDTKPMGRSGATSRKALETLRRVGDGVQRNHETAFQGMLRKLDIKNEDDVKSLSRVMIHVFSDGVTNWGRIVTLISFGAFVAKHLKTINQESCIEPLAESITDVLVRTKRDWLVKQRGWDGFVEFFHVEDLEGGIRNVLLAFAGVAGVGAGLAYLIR

The IC50 is the point on the concentration scale where inhibition reaches its midpoint. Consider `COc1cccc(-c2sc3ncnc(OC(Cc4ccccc4OC)C(=O)O)c3c2-c2ccc(OCCN3CCN(C)CC3)c(Cl)c2C)c1` [Example 554, (2R)-2-{[(5Sa)-5-{3-chloro-2-methyl-4-[2-(4-methylpiperazin-1-yl)ethoxy]phenyl}-6-(3-methoxyphenyl)thieno[2,3-d]pyrimidin-4-yl]oxy}-3-(2-methoxyphenyl)propanoic acid], for which the IC50 worked out at 2.4e-08 M in test [1] and 0.177 µM in test [2].

For the molecule `CCOc1cccc(-c2sc3ncnc(OC(Cc4ccccc4OC)C(=O)O)c3c2-c2ccc(OCCN3CCN(C)CC3)c(Cl)c2C)c1` [Example 557, (2R)-2-{[(5Sa)-5-{3-chloro-2-methyl-4-[2-(4-methylpiperazin-1-yl)ethoxy]phenyl}-6-(3-ethoxyphenyl)thieno[2,3-d]pyrimidin-4-yl]oxy}-3-(2-methoxyphenyl)propanoic acid], the IC50 in test [1] amounted to 4.5e-09 M; in test [2], 0.475 µM.

As to `COc1ccccc1CC(Oc1ncnc2sc(-c3cccc(SC)c3)c(-c3ccc(OCCN4CCN(C)CC4)c(Cl)c3C)c12)C(=O)O` [Example 558, (2R)-2-[((5Sa)-5-{3-chloro-2-methyl-4-[2-(4-methylpiperazin-1-yl)ethoxy]phenyl}-6-[3-(methylsulfanyl)phenyl]thieno[2,3-d]pyrimidin-4-yl)oxy]-3-(2-methoxyphenyl)propanoic acid], the IC50 in test [1] was 5.9e-08 M; in test [2], 0.742 µM.

With `COc1ccccc1CC(Oc1ncnc2sc(-c3cccc(Cl)c3F)c(-c3ccc(OCCN4CCN(C)CC4)c(Cl)c3C)c12)C(=O)O` [Example 559, (2R)-2-{[6-(3-chloro-2-fluorophenyl)-(5Sa)-5-{3-chloro-2-methyl-4-[2-(4-methylpiperazin-1-yl)ethoxy]phenyl}thieno[2,3-d]pyrimidin-4-yl]oxy}-3-(2-methoxyphenyl)propanoic acid], the IC50 in test [1] was 5.2e-09 M; in test [2], 0.293 µM.

For `COc1ccccc1CC(Oc1ncnc2sc(-c3cccc(F)c3F)c(-c3ccc(OCCN4CCN(C)CC4)c(Cl)c3C)c12)C(=O)O` [Example 560, (2R)-2-{[(5Sa)-5-{3-chloro-2-methyl-4-[2-(4-methylpiperazin-1-yl)ethoxy]phenyl}-6-(2,3-difluorophenyl)thieno[2,3-d]pyrimidin-4-yl]oxy}-3-(2-methoxyphenyl)propanoic acid], the IC50 was 1.1e-08 M in test [1] and 0.128 µM in test [2].

With `COc1ccccc1CC(Oc1ncnc2sc(-c3cccc(OC)c3F)c(-c3ccc(OCCN4CCN(C)CC4)c(Cl)c3C)c12)C(=O)O` [Example 561, (2R)-2-{[(5Sa)-5-{3-chloro-2-methyl-4-[2-(4-methylpiperazin-1-yl)ethoxy]phenyl}-6-(2-fluoro-3-methoxyphenyl)thieno[2,3-d]pyrimidin-4-yl]oxy}-3-(2-methoxyphenyl)propanoic acid], the figures for the IC50 in test [1] and in test [2] were 2.7e-08 M and 0.61 µM, respectively.

For `COc1ccccc1CC(Oc1ncnc2sc(-c3cccc4occc34)c(-c3ccc(OCCN4CCN(C)CC4)c(Cl)c3C)c12)C(=O)O` [Example 563, (2R)-2-{[6-(1-benzofuran-4-yl)-(5Sa)-5-{3-chloro-2-methyl-4-[2-(4-methylpiperazin-1-yl)ethoxy]phenyl}thieno[2,3-d]pyrimidin-4-yl]oxy}-3-(2-methoxyphenyl)propanoic acid], the 50% inhibitory concentration (IC50) was 7.4e-08 M in test [1] and 1.16 µM in test [2].

As for `COc1ccccc1CC(Oc1ncnc2sc(-c3ccccc3)c(-c3ccc(OCCN4CCN(C)CC4)c(Cl)c3C)c12)C(=O)O` [Example 564, (2R)-2-[((5Sa)-5-{3-chloro-2-methyl-4-[2-(4-methylpiperazin-1-yl)ethoxy]phenyl}-6-phenylthieno[2,3-d]pyrimidin-4-yl)oxy]-3-(2-methoxyphenyl)propanoic acid], the IC50 in test [1] came out at 8.5e-10 M; in test [2], 0.202 µM.

Take `COc1ccccc1CC(Oc1ncnc2sc(-c3ccccc3Cl)c(-c3ccc(OCCN4CCN(C)CC4)c(Cl)c3C)c12)C(=O)O` [Example 565, (2R)-2-{[(5Sa)-5-{3-chloro-2-methyl-4-[2-(4-methylpiperazin-1-yl)ethoxy]phenyl}-6-(2-chlorophenyl)thieno[2,3-d]pyrimidin-4-yl]oxy}-3-(2-methoxyphenyl)propanoic acid]: the IC50 in test [1] worked out at 4.8e-07 M; in test [2], 1.96 µM.

For `COc1ccccc1CC(Oc1ncnc2sc(-c3ccsc3)c(-c3ccc(OCCN4CCN(C)CC4)c(Cl)c3C)c12)C(=O)O` [Example 568, (2R)-2-{[(5Sa)-5-{3-chloro-2-methyl-4-[2-(4-methylpiperazin-1-yl)ethoxy]phenyl}-6-(thiophen-3-yl)thieno[2,3-d]pyrimidin-4-yl]oxy}-3-(2-methoxyphenyl)propanoic acid], the IC50 was found to be 2.5e-08 M in test [1] and 0.22 µM in test [2].

As to `COc1ccccc1CC(Oc1ncnc2sc(-c3cnco3)c(-c3ccc(OCCN4CCN(C)CC4)c(Cl)c3C)c12)C(=O)O` [Example 569, (2R)-2-{[(5Sa)-5-{3-chloro-2-methyl-4-[2-(4-methylpiperazin-1-yl)ethoxy]phenyl}-6-(1,3-oxazol-5-yl)thieno[2,3-d]pyrimidin-4-yl]oxy}-3-(2-methoxyphenyl)propanoic acid], the IC50 in test [1] was found to be 3.9e-08 M; in test [2], 1.73 µM.

On to `COc1ccccc1CC(Oc1ncnc2sc(-c3csc(Cl)c3)c(-c3ccc(OCCN4CCN(C)CC4)c(Cl)c3C)c12)C(=O)O` [Example 570, (2R)-2-{[(5Sa)-5-{3-chloro-2-methyl-4-[2-(4-methylpiperazin-1-yl)ethoxy]phenyl}-6-(5-chlorothiophen-3-yl)thieno[2,3-d]pyrimidin-4-yl]oxy}-3-(2-methoxyphenyl)propanoic acid], for which the IC50 was determined as 2e-08 M in test [1] and 0.324 µM in test [2].

Turning to `COc1ccccc1CC(Oc1ncnc2sc(-c3csc4ccsc34)c(-c3ccc(OCCN4CCN(C)CC4)c(Cl)c3C)c12)C(=O)O` [Example 571, (2R)-2-{[(5Sa)-5-{3-chloro-2-methyl-4-[2-(4-methylpiperazin-1-yl)ethoxy]phenyl}-6-(thieno[3,2-b]thiophen-3-yl)thieno[2,3-d]pyrimidin-4-yl]oxy}-3-(2-methoxyphenyl)propanoic acid], the IC50 was found to be 4.4e-08 M in test [1] and 0.559 µM in test [2].

`CCC#Cc1sc2ncnc(OC(Cc3ccccc3OC)C(=O)O)c2c1-c1ccc(OCCN2CCN(C)CC2)c(Cl)c1C` [Example 573, (2R)-2-{[6-(but-1-yn-1-yl)-(5Sa)-5-{3-chloro-2-methyl-4-[2-(4-methylpiperazin-1-yl)ethoxy]phenyl}thieno[2,3-d]pyrimidin-4-yl]oxy}-3-(2-methoxyphenyl)propanoic acid]: the IC50 in test [1] was determined as 1.1e-08 M; in test [2], 0.366 µM.

For the molecule `COc1ccccc1CC(Oc1ncnc2sc(C(C)(F)F)c(-c3ccc(OCCN4CCN(C)CC4)c(Cl)c3C)c12)C(=O)O` [Example 576, (2R)-2-{[(5Sa)-5-{3-chloro-2-methyl-4-[2-(4-methylpiperazin-1-yl)ethoxy]phenyl}-6-(1,1-difluoroethyl)thieno[2,3-d]pyrimidin-4-yl]oxy}-3-(2-methoxyphenyl)propanoic acid], the values for the IC50 in test [1] and in test [2] were 6.2e-08 M and 1.51 µM, respectively.

In the case of `C#Cc1ccc(-c2sc3ncnc(OC(Cc4ccccc4OC)C(=O)O)c3c2-c2ccc(OCCN3CCN(C)CC3)c(Cl)c2C)o1` [Example 578, (2R)-2-{[(5Sa)-5-{3-chloro-2-methyl-4-[2-(4-methylpiperazin-1-yl)ethoxy]phenyl}-6-(5-ethynylfuran-2-yl)thieno[2,3-d]pyrimidin-4-yl]oxy}-3-(2-methoxyphenyl)propanoic acid], the IC50 in test [1] is 3.8e-08 M; in test [2], 0.347 µM.

As for `COc1ccccc1CC(Oc1ncnc2sc(-c3ccc(C#N)o3)c(-c3ccc(OCCN4CCN(C)CC4)c(Cl)c3C)c12)C(=O)O` [Example 579, (2R)-2-{[(5Sa)-5-{3-chloro-2-methyl-4-[2-(4-methylpiperazin-1-yl)ethoxy]phenyl}-6-(5-cyanofuran-2-yl)thieno[2,3-d]pyrimidin-4-yl]oxy}-3-(2-methoxyphenyl)propanoic acid], the results for the IC50 in test [1] and in test [2] were 8.5e-09 M and 0.463 µM, respectively.

On to `C=Cc1ccc(-c2sc3ncnc(OC(Cc4ccccc4OC)C(=O)O)c3c2-c2ccc(OCCN3CCN(C)CC3)c(Cl)c2C)o1` [Example 584, (2R)-2-{[(5Sa)-5-{3-chloro-2-methyl-4-[2-(4-methylpiperazin-1-yl)ethoxy]phenyl}-6-(5-ethenylfuran-2-yl)thieno[2,3-d]pyrimidin-4-yl]oxy}-3-(2-methoxyphenyl)propanoic acid], for which the IC50 was found to be 2.9e-08 M in test [1] and 0.902 µM in test [2].

Turning to `COc1ccccc1CC(Oc1ncnc2sc(-c3ccc(C4CC4)o3)c(-c3ccc(OCCN4CCN(C)CC4)c(Cl)c3C)c12)C(=O)O` [Example 585, (2R)-2-{[(5Sa)-5-{3-chloro-2-methyl-4-[2-(4-methylpiperazin-1-yl)ethoxy]phenyl}-6-(5-cyclopropylfuran-2-yl)thieno[2,3-d]pyrimidin-4-yl]oxy}-3-(2-methoxyphenyl)propanoic acid], the results for the IC50 in test [1] and in test [2] were 8.5e-08 M and 2.92 µM, respectively.

Consider `COc1ccccc1CC(Oc1ncnc2sc(-c3cccc(OCc4ccncc4)c3)c(-c3ccc(OCCN4CCN(C)CC4)c(Cl)c3C)c12)C(=O)O` [Example 587, (2R)-2-[((5Sa)-5-{3-chloro-2-methyl-4-[2-(4-methylpiperazin-1-yl)ethoxy]phenyl}-6-[3-(pyridin-4-ylmethoxy)phenyl]thieno[2,3-d]pyrimidin-4-yl)oxy]-3-(2-methoxyphenyl)propanoic acid], for which the IC50 worked out at 2.6e-08 M in test [1] and 0.539 µM in test [2].

These data come from US9670227B2, “Thienopyrimidine derivatives, a process for their preparation and pharmaceutical compositions containing them” (LES LABORATOIRES SERVIER, priority 2013, dated 2017).
